Results reported in patent US7468379B2, “Inhibition of osteolytic lesions by SRC kinase inhibitors” (The Board of Regents of the University of Texas System, priority 2005, dated 2008).

Key:
[1] = system: Src-dependent protein tyrosine phosphorylation; assay: Src-dependent protein tyrosine phosphorylation; details: concentrations comparable to the Src enzyme IC50
BMM cells [2] = assay: Cytotoxicity assay against BMM cells (crystal violet); type: cell-based
Description: (§1) Primary Bone Marrow Cell Culture. Primary bone marrow cells (BMM) from the tibiae and femora were aseptically dissected from Black 6 mice (C57BU6J) 8-12 weeks of age. Bone marrow was flushed out with incomplete D-MEM and centrifuged at 1200 rpm for 3 minutes and re-suspended in 5 ml incomplete D-MEM. BMM cells were incubated in 20 ml Red Blood Cell lysis buffer (8.3 g/NH4Cl, 1 g/l sodium bicarbonate, 0.4 g/l EDTA) at room temperature for 1-2 min. 25 ml of D-MEM supplemented with 10% FBS and 100 units/ml penicillin (complete D-MEM) were added and BMM cells were centrifuged for 3 min at 1200 rpm. BMM cells were then plated at 1.5−2×10^7 cells/10 cm dish with 10 ml of complete D-MEM and cultured for 24 h. Non-adherent cells were collected and centrifuged for 5 min at 1200 rpm and plated at a concentration of 2.5×10^4 cells/well in a 96 well dish for cytotoxicity assay, 2×10^4 cells/well in 48-well plates, or 5×10^3 cells/well in 96-well plates for osteoclast differentiation assays. Cells were cultured for 3 days in the presence of 10 ng/ml M-CSF before they were washed and used for further studies. For differentiation into osteoclasts 30-100 ng/ml RANKL is added. Media was supplemented after 2 days with fresh M-CSF and RANKL.
Cytotoxicity Assay. […] Absorbance was measured at 630 nm using an EL800 universal microplate reader from Bio-Tek Instruments Inc (Winooski, Vt.).

BMM cells [3] = assay: In vitro RANKL-mediated osteoclast differentiation of BMM cells (TRAP staining); type: cell-based, Black 6 mice (C57BL/6J); details: M-CSF 10 ng/ml and RANKL 100 ng/ml, TRAP staining on day five
From the text: (§2) FIGS. 1A-1C. […] M-CSF was replenished on day 3. Cells were fixed and stained for TRAP on day five, using a TRAP staining kit from Sigma-Aldrich (St. Louis, Mo.). (FIG. 1C) Data shown is representative of three experiments. Shown are photographs of representative fields from the different treatments using a 10× objective lens.
(§3) Primary Bone Marrow Cell Culture. Primary bone marrow cells (BMM) from the tibiae and femora were aseptically dissected from Black 6 mice (C57BU6J) 8-12 weeks of age. Bone marrow was flushed out with incomplete D-MEM and centrifuged at 1200 rpm for 3 minutes and re-suspended in 5 ml incomplete D-MEM. BMM cells were incubated in 20 ml Red Blood Cell lysis buffer (8.3 g/NH4Cl, 1 g/l sodium bicarbonate, 0.4 g/l EDTA) at room temperature for 1-2 min. 25 ml of D-MEM supplemented with 10% FBS and 100 units/ml penicillin (complete D-MEM) were added and BMM cells were centrifuged for 3 min at 1200 rpm. BMM cells were then plated at 1.5−2×10^7 cells/10 cm dish with 10 ml of complete D-MEM and cultured for 24 h. […]
In Vitro Osteoclast Differentiation. […] At day 5, cells were fixed and assessed for osteoclast differentiation by counting the total number of TRAP-positive, multinucleated (>3 nuclei), cells per well 96 h post-treatment using Leucocyte Acid phosphatase kit from Sigma-Aldrich (St. Louis, Mo.).

BMM cells [4] = assay: Time-dependency of osteoclast differentiation inhibition in BMM cells; type: cell-based, Black 6 mice (C57BL/6J); details: 300 nM SKI606 added 12, 24 or 48 hours post-RANKL stimulation, TRAP at 96 h
From the text: as §2, with “2A-2B. BMM cells respond to SKI606 in a time-dependent manner.” for “1A-1C.”, “2B)” for “1C)”, “Photographs” for “Shown”, “are” for “are photographs”
as §3
Time-dependency. […] Cells were then fixed, stained for TRAP and the numbers of osteoclasts were counted in each condition as described above.

BMM cells [5] = assay: Bone-resorption assay (collagen I release from OsteoAssay plates); type: cell-based, Black 6 mice (C57BL/6J); details: 300 nM SKI606 with M-CSF and RANKL, compared to M-CSF and RANKL treatment, day 5
Description: as §1, with “Cells were cultured for 3 days in the presence of 10 ng/ml M-CSF before they were washed and used for further studies. For differentiation into osteoclasts 30-100 ng/ml RANKL is added. Media was supplemented after 2 days with fresh M-CSF and RANKL.” left out
Bone-Resorption Assay. […] Bone resorption was evaluated by measuring collagen I release from the OsteoAssay plate using Cross Laps for Culture ELISA kit from Nordic Bioscience Diagnostics (Portsmouth, Va.). Absorbance was measured at 450 nm using the reading at 650 nm as reference using an EL800 universal microplate reader from Bio-Tek Instruments Inc (Winooski, Vt.).

RAW264.7 cells [6] = assay: RAW264.7 co-culture with MDA-MB-435 cells, osteoclastogenesis (TRAP); type: cell-based, mouse; details: 400 nM SKI606, 5 days
Description: (§4) FIGS. 4A-4B. […] (FIG. 4B) RAW264.7 cells (750 cells/well; 8 wells per treatment) were plated in 96 well plates in 10% conditioned media from MDA-MB-435 for 5 days. The cultures were fixed and stained for TRAP on day five, using a TRAP staining kit from Sigma-Aldrich (St. Louis, Mo.). Data shown is representative of five experiments.
RAW 264.7 Co-culture with MDA MB435 cells and Conditioned Media. For co-culture assays RAW264.7 (500 cells/well) were plated in 96 well plates and allowed to adhere for 12 hours. MDA-MB-435 were then introduced into the RAW264.7 culture at increasing density and incubated for 12 hours. […] Cells were then fixed, stained for TRAP and the numbers of osteoclasts were counted in each condition as described above.

RAW264.7 cells [7] = assay: RAW264.7 with conditioned media from MDA-MB-435 cells, osteoclastogenesis (TRAP); type: cell-based, mouse; details: 10% conditioned media, 5 days
Description: as §4
For conditioned media the MDA-MB-435 cells were plated in 10 cm plates (1×10^6 cells/plate) and incubated for 36 hours. Media was then removed, centrifuged for 5 minutes at 2500 rpm and supernatants were isolated and placed in 4° C. until use. RAW264.7 cells (750 cells/well) were plated in 96 well plates and allowed to adhere for 12 hours. […] Cells were then fixed, stained for TRAP and the numbers of osteoclasts were counted in each condition as described above.

MDA-MB-435 cells = assay: MDA-MB-435 Bone Tumor Mouse Model (intratibial injection); type: in vivo, Female athymic NCr nude mice; details: SKI606 150 mg/kg oral gavage, 9 weeks; tumor-injected tibia sections
Description: Mice were divided into 3 treatment groups. […] (FIG. 5A) Weight of tumor was determined as follows: weight of injected leg-weight of non-injected hind leg of the same animal. (FIG. 5B) Areas of lysis were estimated from digital X-ray images; NIH Scion program was used to measure area of tibias and lytic areas, to calculate the ratio of pixels in lytic zones/pixels in tibia area. (FIG. 5C) The tumor-injected tibia was fixed and decalcified in EDTA, and sections stained for the presence of multinucleated osteoclasts (>3 nuclei) using TRAP staining kit from Sigma-Aldrich (St. Louis, Mo.).
X-ray images were taken at 35 days after injection, and also at 14-day intervals. […]
Intrabone Injections and Processing of Bone Tissue Samples. […] After 9 weeks, final X-ray images were taken, tumor weight calculated from the difference in weight of the tumor-bearing and non tumor-bearing leg of the same animal. […] Incidence of tumor in the tibia was determined by examination of histology sections. Weight of tumor was determined as follows: weight of injected leg-weight of non-injected hind leg of the same animal. […]
Mice were divided into three treatment groups and the incidence of tumor in the tibia was determined by examination of histology sections and weight of tumor.

`COc1cc(Nc2c(C#N)cnc3cc(OCCCN4CCN(C)CC4)c(OC)cc23)c(Cl)cc1Cl` [SKI606, 4-((2,4-Dichloro-5-methoxyphenyl)amino)-6-methoxy-7-(3-(4-methyl-1-piperazinyl)propoxy)-3-quinolinecarbonitrile] was tested, and the “inhibition of Src-dependent protein tyrosine phosphorylation” value [1] was “inhibits Src-dependent protein tyrosine phosphorylation at comparable concentrations”, the “cells died (cytotoxicity to BMM cells)” value (BMM cells [2]; 600 nM SKI606, 72 h) was “less than 10%” and the “cytotoxicity to BMM cells” value (BMM cells [2]; 72 h) was “not cytotoxic”. For the same molecule, the “effect on RANKL-mediated osteoclast differentiation in BMM” value (BMM cells [3]) was “inhibitory effect on RANKL-mediated osteoclast differentiation in BMM in a dose dependent manner”, the “sensitivity of BMM cells to compound added after initiation of osteoclastogenesis” value (BMM cells [4]) was “less sensitive” and the “decrease in collagen I release, an indicator of bone resorption” value (BMM cells [5]) was 3.7 fold. The “inhibition of MDA-MB-435-induced osteoclastogenesis in RAW264.7 cells” value (RAW264.7 cells [6]) was “significantly inhibited”, the “inhibition of osteoclastogenesis induced by conditioned media from MDA-MB-435 cells” value (RAW264.7 cells [7]) was “able to inhibit” and the “TRAP-positive cells counted in sections of tumors” value (MDA-MB-435 cells) was “significantly fewer”.
